Assay [1] concerns the target T1, Acetylcholinesterase (Rattus norvegicus, UniProt P37136).
T1 sequence (P37136 whole entry): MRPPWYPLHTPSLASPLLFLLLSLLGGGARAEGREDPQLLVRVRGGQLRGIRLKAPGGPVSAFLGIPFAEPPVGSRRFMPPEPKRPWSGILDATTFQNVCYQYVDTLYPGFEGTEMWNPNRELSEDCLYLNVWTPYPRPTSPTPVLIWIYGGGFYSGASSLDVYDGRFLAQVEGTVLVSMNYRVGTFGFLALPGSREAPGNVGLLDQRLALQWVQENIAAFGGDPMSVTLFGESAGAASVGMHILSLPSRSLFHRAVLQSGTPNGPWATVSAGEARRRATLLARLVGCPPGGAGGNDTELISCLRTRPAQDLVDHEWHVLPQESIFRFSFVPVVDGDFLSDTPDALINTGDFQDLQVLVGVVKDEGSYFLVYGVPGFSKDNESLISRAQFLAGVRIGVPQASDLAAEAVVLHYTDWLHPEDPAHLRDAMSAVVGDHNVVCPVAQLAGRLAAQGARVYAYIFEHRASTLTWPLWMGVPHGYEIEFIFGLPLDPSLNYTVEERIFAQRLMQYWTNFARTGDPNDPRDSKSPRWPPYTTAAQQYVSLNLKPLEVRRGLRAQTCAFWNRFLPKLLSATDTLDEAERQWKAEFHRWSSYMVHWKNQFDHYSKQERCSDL
The experiment in a line: Inhibition of rat brain AChE.

Assay [2] concerns the target T2, Acetylcholinesterase (Homo sapiens, UniProt P22303). Briefly: Inhibition of acetylcholinesterase (unknown origin).
Another assay concerns the target Cholinesterase (Equus caballus, UniProt P81908). The experiment in a line: Inhibition of equine serum BuChE after 15 mins by spectrophotometric analysis.
The target of assay [3] is T3, Acetylcholinesterase (Electrophorus electricus, UniProt O42275). Briefly: Inhibition of electric eel acetylcholinesterase using acetylthiocholine chloride as substrate preincubated for 15 mins followed by substrate addition measured every 1 min by spectrophotometric analysis.
T3 sequence (O42275 whole entry): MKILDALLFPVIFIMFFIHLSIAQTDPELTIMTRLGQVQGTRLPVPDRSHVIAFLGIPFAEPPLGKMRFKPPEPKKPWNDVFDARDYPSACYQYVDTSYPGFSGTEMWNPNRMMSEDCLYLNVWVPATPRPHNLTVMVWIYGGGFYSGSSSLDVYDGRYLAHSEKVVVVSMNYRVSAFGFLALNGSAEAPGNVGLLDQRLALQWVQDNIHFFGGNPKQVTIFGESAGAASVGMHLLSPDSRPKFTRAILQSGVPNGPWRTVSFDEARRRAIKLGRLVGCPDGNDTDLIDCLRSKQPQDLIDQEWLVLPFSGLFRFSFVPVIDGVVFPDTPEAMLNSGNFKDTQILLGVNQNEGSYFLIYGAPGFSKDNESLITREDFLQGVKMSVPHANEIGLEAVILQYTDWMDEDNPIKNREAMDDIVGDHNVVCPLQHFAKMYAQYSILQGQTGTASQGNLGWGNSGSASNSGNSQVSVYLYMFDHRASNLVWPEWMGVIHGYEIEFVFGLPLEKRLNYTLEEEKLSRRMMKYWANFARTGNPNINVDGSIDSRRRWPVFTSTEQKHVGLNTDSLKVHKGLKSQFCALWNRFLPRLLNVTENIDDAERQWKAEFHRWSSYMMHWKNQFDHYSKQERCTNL
For assay [4], the target named is T2, Acetylcholinesterase. The experiment in a line: Inhibition of acetylcholinesterase (unknown origin) by Ellman's method.
The target of assay [5] is T3, Acetylcholinesterase. Briefly: Inhibition of electric eel acetylcholinesterase using acetylcholine chloride as substrate measured every 1 min by chemiluminescent assay.
The target of assay [6] is T4, Acetylcholinesterase (Bos taurus, UniProt P23795).
T4 sequence (P23795 whole entry): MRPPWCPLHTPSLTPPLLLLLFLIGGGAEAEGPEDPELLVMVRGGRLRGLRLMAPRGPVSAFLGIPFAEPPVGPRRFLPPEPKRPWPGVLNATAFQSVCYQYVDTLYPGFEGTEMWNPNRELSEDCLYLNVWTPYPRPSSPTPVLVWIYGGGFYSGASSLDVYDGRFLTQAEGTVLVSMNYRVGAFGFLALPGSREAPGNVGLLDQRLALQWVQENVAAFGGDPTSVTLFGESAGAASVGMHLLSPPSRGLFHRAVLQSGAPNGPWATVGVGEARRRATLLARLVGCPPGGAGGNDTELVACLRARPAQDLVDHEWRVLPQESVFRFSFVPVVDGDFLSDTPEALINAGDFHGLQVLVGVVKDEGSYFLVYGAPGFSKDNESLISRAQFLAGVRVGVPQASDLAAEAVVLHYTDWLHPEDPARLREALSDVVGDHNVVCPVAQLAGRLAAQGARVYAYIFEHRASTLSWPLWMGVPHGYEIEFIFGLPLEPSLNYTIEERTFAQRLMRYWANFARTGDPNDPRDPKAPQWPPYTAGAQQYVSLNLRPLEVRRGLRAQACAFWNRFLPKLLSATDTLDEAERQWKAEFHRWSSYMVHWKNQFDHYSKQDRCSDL
The experiment in a line: Inhibition of bovine erythrocyte acetylcholinesterase using acetylthiocholine iodide as substrate after 15 mins by Ellman's method. On the technique in general: Ellman's reagent forms a yellow product with free thiols.

pIC50: −log10 of the molar value.

As a reminder, the pIC50 is the IC50 on a negative log10 scale, so that one unit is a factor of ten. Read a low pIC50 as a high IC50.

T2 sequence (P22303 whole entry): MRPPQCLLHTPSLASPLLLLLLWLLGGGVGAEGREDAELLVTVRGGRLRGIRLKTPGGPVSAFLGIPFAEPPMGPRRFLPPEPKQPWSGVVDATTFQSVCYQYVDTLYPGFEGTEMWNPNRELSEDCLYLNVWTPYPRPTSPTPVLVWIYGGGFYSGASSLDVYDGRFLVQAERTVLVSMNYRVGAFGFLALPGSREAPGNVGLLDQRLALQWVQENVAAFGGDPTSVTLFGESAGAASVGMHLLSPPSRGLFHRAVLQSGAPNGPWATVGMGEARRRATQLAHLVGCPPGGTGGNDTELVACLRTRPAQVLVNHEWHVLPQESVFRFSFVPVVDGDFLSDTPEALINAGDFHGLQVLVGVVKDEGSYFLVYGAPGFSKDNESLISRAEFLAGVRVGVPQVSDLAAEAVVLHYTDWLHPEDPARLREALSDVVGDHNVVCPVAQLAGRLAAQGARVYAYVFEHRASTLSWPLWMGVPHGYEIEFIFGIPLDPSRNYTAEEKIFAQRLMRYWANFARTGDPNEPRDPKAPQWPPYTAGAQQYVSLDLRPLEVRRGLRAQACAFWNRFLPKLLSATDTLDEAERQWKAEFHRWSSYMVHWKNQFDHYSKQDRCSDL
Sequence of Cholinesterase (P81908 whole entry): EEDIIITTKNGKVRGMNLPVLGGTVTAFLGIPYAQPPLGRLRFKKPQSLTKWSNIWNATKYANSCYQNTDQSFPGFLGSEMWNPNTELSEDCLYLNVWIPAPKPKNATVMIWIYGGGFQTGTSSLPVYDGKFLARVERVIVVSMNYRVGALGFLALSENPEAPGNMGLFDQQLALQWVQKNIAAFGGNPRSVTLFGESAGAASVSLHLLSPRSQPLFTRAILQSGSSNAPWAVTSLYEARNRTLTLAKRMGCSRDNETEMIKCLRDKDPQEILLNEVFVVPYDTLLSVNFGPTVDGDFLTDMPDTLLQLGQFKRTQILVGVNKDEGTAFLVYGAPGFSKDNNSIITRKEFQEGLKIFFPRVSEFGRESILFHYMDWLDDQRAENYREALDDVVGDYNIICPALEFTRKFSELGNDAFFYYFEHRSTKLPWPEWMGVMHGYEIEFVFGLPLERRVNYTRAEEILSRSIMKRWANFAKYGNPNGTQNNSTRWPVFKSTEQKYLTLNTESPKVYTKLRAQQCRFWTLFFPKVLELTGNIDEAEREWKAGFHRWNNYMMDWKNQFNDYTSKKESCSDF

For `CC(=O)CCCCCCCCCCCC[C@H]1CC[C@@H](OC(=O)OC(C)(C)C)[C@@H](C)N1`, the pIC50 at Acetylcholinesterase [1] was 4.82. `CCOC(=O)C1=C(C)Oc2nc3c(c(N)c2C1c1ccc(OC)cc1)CCCC3` (centres undefined): the pIC50 against Acetylcholinesterase [2] is 6.06. For `COc1cc2c3c(c1OC)/C1=C/C[C@H](O)C[C@@H](O)[C@H](O1)[C@@H]3N(C)CC2`, the pIC50 against Cholinesterase is 4.87; at Acetylcholinesterase [3], 6.14.

In the case of `CCn1c(=O)n(C)s/c1=N\CCC1CCN(Cc2ccccc2)CC1`, the pIC50 against Acetylcholinesterase [4] was 6.85. Turning to `CC(=O)CCCCCCCCCCCC[C@H]1CC[C@@H](OC(C)=O)[C@@H](C)N1`, the negative-log IC50 (pIC50) at Acetylcholinesterase [1] is 5.14.

At Acetylcholinesterase [5], `O=C1CCN(Cc2ccccc2)C/C1=C\c1c[nH]c2ccccc12` gave a pIC50 of 5.10.

In the case of `CCOC(=O)C1=C(C)Oc2nc3c(c(N)c2C1c1ccc(C)cc1)CCCC3` (centres undefined), on Acetylcholinesterase [2], the negative logarithm of the IC50 (pIC50) was 6.74. In turn, `Cc1nn(-c2ccccc2)c2nc3nc4c(c(N)c3cc12)CCCC4` gave a negative logarithm of the IC50 (pIC50) at Acetylcholinesterase [6] of 5.19.

Source of the values: ChEMBL document CHEMBL3085748, “Acetylcholinesterase inhibitors as Alzheimer therapy: from nerve toxins to neuroprotection” (Eur J Med Chem, 2013).
